Test system: Vero cells
Assay type: cell-based
Conditions: read-out: IC50 of toxicity

C[C@@H]1C[C@@H]([C@H](O)CC2CC(=O)NC(=O)C2)C(=O)[C@@H](C)C1 [cyclohexamide]
IC50: 200 nM
